Test results as given in patent US9624218B2 (Eli Lilly and Company, priority 2014, dated 2017).
Where “and” joins values, the source holds several entries; their conditions need not be identical. Equal values may be shown once. Read-outs that look alike come from different tables or passages of the source.

Assays:
[1] = tested on: Wnt-inducible genes (TCF/LEF luciferase reporter in DLD-1 TOPFlash cells); assay: cells; conditions: Homo sapiens, DLD-1, 24 h, read-out: Wnt-inducible gene expression inhibition IC50, DLD-1 TOPFlash cells, 24 hours; Mean ± SEM
[2] = tested on: EGFP-Axin2 fusion protein; conditions: read-out: Axin2 Stabilization EC50; HEK293 EGFP-Axin2 cells, 24 hours; Mean ± SEM
[3] = tested on: Wnt-inducible genes (TCF/LEF luciferase reporter in DLD-1 TOPFlash cells); conditions: read-out: Wnt-inducible gene expression inhibition IC50, 24 hours, Mean ± SEM
[4] = molecular target: hTNKS1 (Homo sapiens (Human), UniProt O95271); assay: hTNKS1 enzyme activity ELISA (poly ADP ribose incorporation into TRF1); format: biochemical; conditions: Mean ± SEM
Chain of hTNKS1 (O95271 whole entry, change not shown): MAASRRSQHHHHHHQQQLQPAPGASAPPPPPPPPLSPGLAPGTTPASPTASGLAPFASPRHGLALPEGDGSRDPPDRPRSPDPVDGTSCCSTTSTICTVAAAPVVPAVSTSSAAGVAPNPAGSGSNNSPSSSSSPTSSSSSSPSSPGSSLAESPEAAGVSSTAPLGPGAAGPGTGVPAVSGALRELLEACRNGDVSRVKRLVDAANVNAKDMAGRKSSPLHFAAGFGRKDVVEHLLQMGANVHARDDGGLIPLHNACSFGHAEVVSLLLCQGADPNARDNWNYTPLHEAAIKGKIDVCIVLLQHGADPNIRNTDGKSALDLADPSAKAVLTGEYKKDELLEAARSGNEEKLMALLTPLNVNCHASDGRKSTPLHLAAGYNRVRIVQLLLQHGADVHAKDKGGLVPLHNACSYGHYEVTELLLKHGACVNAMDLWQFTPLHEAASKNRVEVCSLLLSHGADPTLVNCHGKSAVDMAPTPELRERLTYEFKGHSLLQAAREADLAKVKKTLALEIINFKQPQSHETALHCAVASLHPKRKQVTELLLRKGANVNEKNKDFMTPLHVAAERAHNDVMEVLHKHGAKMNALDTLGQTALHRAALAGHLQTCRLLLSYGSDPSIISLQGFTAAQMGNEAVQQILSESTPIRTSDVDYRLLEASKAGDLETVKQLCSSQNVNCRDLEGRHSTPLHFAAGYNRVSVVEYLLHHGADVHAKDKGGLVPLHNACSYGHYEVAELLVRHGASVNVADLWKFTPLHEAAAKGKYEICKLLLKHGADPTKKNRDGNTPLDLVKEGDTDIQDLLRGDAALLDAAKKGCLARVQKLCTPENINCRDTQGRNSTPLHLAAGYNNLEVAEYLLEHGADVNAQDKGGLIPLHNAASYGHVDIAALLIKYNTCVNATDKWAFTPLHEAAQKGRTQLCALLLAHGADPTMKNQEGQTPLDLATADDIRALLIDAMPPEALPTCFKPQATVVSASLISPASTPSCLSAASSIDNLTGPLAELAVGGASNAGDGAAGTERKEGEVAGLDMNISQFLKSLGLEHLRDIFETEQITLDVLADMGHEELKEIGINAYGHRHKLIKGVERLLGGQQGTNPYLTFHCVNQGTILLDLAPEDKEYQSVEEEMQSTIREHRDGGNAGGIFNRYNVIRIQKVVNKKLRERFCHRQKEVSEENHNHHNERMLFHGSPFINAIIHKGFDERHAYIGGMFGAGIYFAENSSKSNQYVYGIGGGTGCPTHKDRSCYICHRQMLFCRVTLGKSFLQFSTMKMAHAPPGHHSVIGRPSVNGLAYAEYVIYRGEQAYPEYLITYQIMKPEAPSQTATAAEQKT

[5] = tested on: HPAF-II cells; assay: cells; conditions: Homo sapiens, read-out: % Inhibition of Colony Formation
[6] = tested on: C57BL/6J-Apc^Min/J strain mice; assay: In vivo antitumor activity, intestinal polyps; conditions: 25 mg/kg BID, 60 consecutive days, small intestine
Source text: C57BL/6J-Apc^Min/J strain mice carry a truncating mutation at codon 850 of the Apc gene and develop intestinal polyps and colorectal neoplasms at the age of 3-6 months. Truncation in the APC gene leads to activation of the Wnt signaling pathway and elevated levels of β catenin are frequently detected in pre-neoplastic/neoplastic lesions in these mice.
At the end of the treatment period, the animals are sacrificed and the number of polyps in the small intestine is counted under a dissection microscope.

[7] = tested on: Panc 04.03 cells; conditions: 11 days
[8] = tested on: A549 cells; assay: cells; conditions: Homo sapiens, read-out: % Inhibition of Colony Formation
[9] = tested on: Capan-2 cells; assay: cells; conditions: Homo sapiens, read-out: % Inhibition of Colony Formation

SMILES: CCC(c1ncccn1)N1CCN(c2nc3c(c(=O)[nH]2)CCCN3C)CC1 (stereo not shown) [Example 10, 8-Methyl-2-[4-(1-pyrimidin-2-ylpropyl)piperazin-1-yl]-3,5,6,7-tetrahydropyrido[2,3-d]pyrimidin-4-one]
- IC50 [1]: 171 nM
- EC50 [2]: 590 nM

SMILES: CN1CCCc2c1nc(N1CCN(Cc3nccnc3Cl)CC1)[nH]c2=O [Example 43, 2-[4-[(3-Chloropyrazin-2-yl)methyl]piperazin-l-yl]-8-methyl-3,5,6,7-tetrahydropyrido[2,3-d]pyrimidin-4-one]
- EC50 [2]: 74.5 nM

SMILES: CC(c1ncccn1)N1CCN(c2nc3c(c(=O)[nH]2)CCCN3C)CC1 (single isomer, unassigned; isomer 1) [Example 8, 8-Methyl-2-[4-(1-pyrimidin-2-ylethyl)piperazin-1-yl]-3,5,6,7-tetrahydropyrido[2,3-d]pyrimidin-4-one, Isomer 1]
- IC50 [1]: 18.4 nM
- EC50 [2]: 71.5 nM

SMILES: CN1CCCc2c1nc(N1CCN(Cc3cnccn3)CC1)[nH]c2=O [Example 42, 8-Methyl-2-[4-(pyrazin-2-ylmethyl)piperazin-1-yl]-3,5,6,7-tetrahydropyrido[2,3-d]pyrimidin-4-one]
- IC50 [1]: 22 nM
- EC50 [2]: 141 nM

SMILES: Cc1cnc(CN2CCN(c3nc4c(c(=O)[nH]3)CCCN4C)CC2)nc1 [Example 17, 8-Methyl-2-[4-[(5-methylpyrimidin-2-yl)methyl]piperazin-1-yl]-3,5,6,7-tetrahydropyrido[2,3-d]pyrimidin-4-one]
- IC50 [1]: 37.3 nM
- EC50 [2]: 198 nM

SMILES: CC(c1ncccn1)N1CCN(c2nc3c(c(=O)[nH]2)CCCN3C)CC1 (racemic) [Example 7, 8-Methyl-2-[4-(1-pyrimidin-2-ylethyl)piperazin-1-yl]-3,5,6,7-tetrahydropyrido[2,3-d]pyrimidin-4-one]
- IC50 [1]: 14.6 nM
- EC50 [2]: 121 nM

SMILES: CN1CCCc2c1nc(N1CCN(Cc3ncccc3C#N)CC1)[nH]c2=O [Example 40, 2-[[4-(8-Methyl-4-oxo-3,5,6,7-tetrahydropyrido[2,3-d]pyrimidin-2-yl)piperazin-1-yl]methyl]pyridine-3-carbonitrile]
- IC50 [1]: 6.95 nM
- EC50 [2]: 39.8 nM

SMILES: CN1CCCc2c1nc(N1CCN(Cc3ncc(F)cc3F)CC1)[nH]c2=O [Example 45, 2-[4-[(3,5-Difluoro-2-pyridyl)methyl]piperazin-1-yl]-8-methyl-3,5,6,7-tetrahydropyrido[2,3-d]pyrimidin-4-one]
- IC50 [1]: 18.8 nM
- EC50 [2]: 144 nM

SMILES: CN1CCCc2c1nc(N1CCN(Cc3ncccc3F)CC1)[nH]c2=O [Example 20, 2-[4-[(3-Fluoro-2-pyridyl)methyl]piperazin-1-yl]-8-methyl-3,5,6,7-tetrahydropyrido[2,3-d]pyrimidin-4-one]
- IC50 [1]: 22.2 nM
- EC50 [2]: 77.9 nM

SMILES: CN1CCCc2c1nc(N1CCN(Cc3nccc(C(F)(F)F)n3)CC1)[nH]c2=O [Example 16, 8-Methyl-2-[4-[[4-(trifluoromethyl)pyrimidin-2-yl]methyl]piperazin-1-yl]-3,5,6,7-tetrahydropyrido[2,3-d]pyrimidin-4-one]
- IC50 [1]: 102 nM
- EC50 [2]: 509 nM

SMILES: CN1CCCc2c1nc(N1CCN(Cc3ncccc3Cl)CC1)[nH]c2=O [Example 2, 2-[4-[(3-Chloro-2-pyridyl)methyl]piperazin-1-yl]-8-methyl-3,5,6,7-tetrahydropyrido[2,3-d]pyrimidin-4-one]
- IC50 [1]: 8.17 nM
- EC50 [2]: 32 nM

SMILES: CC(c1ncccn1)N1CCN(c2nc3c(c(=O)[nH]2)CCCN3C)CC1 (single isomer, unassigned; isomer 2) [Example 9, 8-Methyl-2-[4-(1-pyrimidin-2-ylethyl)piperazin-1-yl]-3,5,6,7-tetrahydropyrido[2,3-d]pyrimidin-4-one, Isomer 2]
- EC50 [2]: 70.9 nM
- IC50 [3]: 28.2 nM

SMILES: COc1ccnc(CN2CCN(c3nc4c(c(=O)[nH]3)CCCN4C)CC2)n1 [Example 13, 2-[4-[(4-methoxypyrimidin-2-yl)methyl]piperazin-1-yl]-8-methyl-3,5,6,7-tetrahydropyrido[2,3-d]pyrimidin-4-one]
- IC50 [1]: 23 nM
- EC50 [2]: 101 nM

SMILES: CN1CCCc2c1nc(N1CCN(Cc3nccc(Cl)n3)CC1)[nH]c2=O [Example 41, 2-[4-[(4-Chloropyrimidin-2-yl)methyl]piperazin-1-yl]-8-methyl-3,5,6,7-tetrahydropyrido[2,3-d]pyrimidin-4-one]
- EC50 [2]: 61.6 nM

SMILES: CN1CCCc2c1nc(N1CCN(Cc3ncc(Cl)cn3)CC1)[nH]c2=O [Example 18, 2-[4-[(5-Chloropyrimidin-2-yl)methyl]piperazin-1-yl]-8-methyl-3,5,6,7-tetrahydropyrido[2,3-d]pyrimidin-4-one]
- IC50 [1]: 156 nM
- EC50 [2]: 901 nM

SMILES: CN1CCCc2c1nc(N1CCN(Cc3ncc(C(F)(F)F)cn3)CC1)[nH]c2=O [Example 15, 8-Methyl-2-[4-[[5-(trifluoromethyl)pyrimidin-2-yl]methyl)piperazin-1-yl]-3,5,6,7-tetrahydropyrido[2,3-d]pyrimidin-4-one]
- IC50 [1]: 15.4 nM
- EC50 [2]: 115 nM

SMILES: Cc1nccnc1CN1CCN(c2nc3c(c(=O)[nH]2)CCCN3C)CC1 [Example 44, 8-Methyl-2-[4-[(3-methyl-pyrazin-2-yl)methyl]piperazin-1-yl]-3,5,6,7-tetrahydropyrido[2,3-d]pyrimidin-4-one]
- IC50 [1]: 11.2 nM
- EC50 [2]: 118 nM

SMILES: CCC(c1ncccn1)N1CCN(c2nc3c(c(=O)[nH]2)CCCN3C)CC1 (single isomer, unassigned; isomer 2) [Example 12, 8-Methyl-2-[4-(1-pyrimidin-2-ylpropyl)piperazin-1-yl]-3,5,6,7-tetrahydropyrido[2,3-d]pyrimidin-4-one, Isomer 2]
- EC50 [2]: 122 nM
- IC50 [3]: 19.5 nM

SMILES: CC(c1ncc(F)cn1)N1CCN(c2nc3c(c(=O)[nH]2)CCCN3C)CC1 (stereo not shown) [Example 5]
- IC50 [4]: 85.2 nM

SMILES: CN1CCCc2c1nc(N1CCN(Cc3ccccc3Cl)CC1)[nH]c2=O [Example 38, 2-[4-[(2-Chlorophenyl)methyl]piperazin-1-yl]-8-methyl-3,5,6,7-tetrahydropyrido[2,3-d]pyrimidin-4-one]
- IC50 [1]: 22.2 nM
- EC50 [2]: 34.8 nM

SMILES: CN1CCCc2c1nc(N1CCN(Cc3ncccc3Br)CC1)[nH]c2=O [Example 3, 2-[4-[(3-Bromo-2-pyridyl)methyl]piperazin-1-yl]-8-methyl-3,5,6,7-tetrahydropyrido[2,3-d]pyrimidin-4-one]
- IC50 [1]: 8.66 nM
- EC50 [2]: 18.4 nM

SMILES: Cc1ccnc(CN2CCN(c3nc4c(c(=O)[nH]3)CCCN4C)CC2)n1 [Example 14, 8-Methyl-2-[4-[(4-methylpyrimidin-2-yl)methyl]piperazin-1-yl]-3,5,6,7-tetrahydropyrido[2,3-d]pyrimidin-4-one]
- IC50 [1]: 9.35 nM
- EC50 [2]: 52.7 nM

SMILES: CN1CCCc2c1nc(N1CCN(Cc3ncccn3)CC1)[nH]c2=O [Example 1, 8-Methyl-2-[4-(pyrimidin-2-ylmethyl)piperazin-1-yl]-3,5,6,7-tetrahydropyrido[2,3-d]pyrimidin-4-one]
- inhibition at 0.03 µM [5]: 2.44%
- inhibition at 0.11 µM [5]: 40.5%
- inhibition at 0.33 µM [5]: 61.6%
- inhibition at 1 µM [5]: 85.2%
- inhibition at 3 µM [5]: 88.2%
- Average Number of polyps per Animal [6]: statistically significant lower number of tumors and 4.3 ± 0.70
- IC50 [1]: 13.2 nM
- EC50 [2]: 65.9 nM
- % Inhibition of Colony Formation ([7]; Panc 04.03, 0.03 μM): −34.35%
- % Inhibition of Colony Formation ([7]; Panc 04.03, 0.11 μM): 51.39%
- % Inhibition of Colony Formation ([7]; Panc 04.03, 0.33 μM): 92.79%
- % Inhibition of Colony Formation ([7]; Panc 04.03, 1 μM): 92.51%
- % Inhibition of Colony Formation ([7]; Panc 04.03, 3 μM): 90.03%
- inhibition at 0.03 µM [8]: 25.5%
- inhibition at 0.11 µM [8]: 46.5%
- inhibition at 0.33 µM [8]: 54.2%
- inhibition at 1 µM [8]: 74.3%
- inhibition at 3 µM [8]: 72.1%
- inhibition at 0.03 µM [9]: -20.8%
- inhibition at 0.11 µM [9]: 18%
- inhibition at 0.33 µM [9]: 55.9%
- inhibition at 1 µM [9]: 63.9%
- inhibition at 3 µM [9]: 70.7%

SMILES: CN1CCCc2c1nc(N1CCN(Cc3ncc(F)cn3)CC1)[nH]c2=O [Example 39, 2-[4-[(5-Fluoropyrimidin-2-yl)methyl]piperazin-1-yl]-8-methyl-3,5,6,7-tetrahydropyrido [2,3-d]pyrimidin-4-one]
- IC50 [1]: 20.6 nM
- EC50 [2]: 181 nM

SMILES: CN1CCCc2c1nc(N1CCN(Cc3ncccc3O)CC1)[nH]c2=O [Example 4, 2-[4-[(3-Hydroxy-2-pyridyl)methyl]piperazin-1-yl]-8-methyl-3,5,6,7-tetrahydropyrido[2,3-d]pyrimidin-4-one]
- IC50 [1]: 6.71 nM
- EC50 [2]: 26.9 nM

SMILES: CN1CCCc2c1nc(N1CCN(Cc3ccccn3)CC1)[nH]c2=O [Example 19, 8-Methyl-2-[4-(2-pyridylmethyl)piperazin-1-yl]-3,5,6,7-tetrahydropyrido[2,3-d]pyrimidin-4-one]
- IC50 [1]: 12.6 nM
- EC50 [2]: 62.6 nM
